The values below come from US9636323B2, “Method of treating cancer that overexpresses TopBP1” (Baylor College of Medicine, priority 2014, dated 2017).

Data set [1] concerns T47D (PIK3CA mutant H1047R). Conditions: NCI-60 cell lines database; cited from earlier work.
The next data set relates to MCF7 cells. Briefly: Caspase 3/7 activity assay, MCF7. The data set is classed as cell-based, human. Conditions: 2.5 μM overnight. Here is the method:
The apoptosis was measured by Caspase-Glo® 3/7 assay (Promega) following the manufacturer's protocol. The cells were plated in 6-well tissue culture dish (10^4 cells/well) (BD Falcon) in respective media. […] The blank reactions were prepared per direction. Equal volume of Caspase-Glo® 3/7 reagents were applied to each well. A luminometer (Sirius) was used to quantitate luminescence.

Data set [2] concerns TopBP1 oligomerization. Briefly: TopBP1 oligomerization in MDA-MB468 cells (co-IP of tagged TopBP1, DMP cross-linking). The data set is classed as cell-based, human. Conditions: 2.5 μM, 5 h. Here is the method:
(§1) MDA-MB468 cells were lysed with TNN buffer (Liu et al. 2003). An aliquot of cell lysates was lysed with SDS lysis buffer and the rest of cell lysates were incubated with appropriate antibodies or beads at 4° C. for 3-12 h. Anti-FLAG beads (Sigma) were washed three times with TNN buffer. Immunoprecipitates were fractionated by SDS-PAGE and electro-transferred to Immobilon-P membrane (Millipore). Equal amount of protein loading was validated with Ponceau-S staining. The specific signals were detected by incubating with appropriate antibody. All primary antibodies were used at 1:1000 dilution and horseradish peroxidase (HRP)-conjugated secondary antibodies were used at 1:5000 dilution for immunoblotting. E2F1 (C-20 and KH-95), p53 (FL393), p63 (4A4 and H-129), p73 (H-79), p21 (C-19), Bax (N-20), GST (B-14), c-Myc (A14), Miz1 (H-190), Chk1 (G4), Actin (C-2) and GAPDH (6C5) antibodies were purchased from Santa Cruz. TopBP1 (mouse monoclonal) and Aid antibodies were purchased from BD Transduction Laboratories. TopBP1 (BL893, Rabbit polyclonal) antibody was purchased from Bethyl. Mouse monoclonal anti-phospho-γH2AX was purchased from Millipore. Phospho-Chk1 (Ser345) antibody was purchased from Cell signaling. FLAG (F7425) antibody was purchased from Sigma. Mouse monoclonal anti-p73 (IMG-246) was purchased from IMGENEX. […]

For data set [3], the target named is T1, TopBP1 oligomerization (Homo sapiens, UniProt Q92547).
T1 construct: endogenous in cells; host or cells: MDA-MB468
T1 sequence (Q92547 whole entry): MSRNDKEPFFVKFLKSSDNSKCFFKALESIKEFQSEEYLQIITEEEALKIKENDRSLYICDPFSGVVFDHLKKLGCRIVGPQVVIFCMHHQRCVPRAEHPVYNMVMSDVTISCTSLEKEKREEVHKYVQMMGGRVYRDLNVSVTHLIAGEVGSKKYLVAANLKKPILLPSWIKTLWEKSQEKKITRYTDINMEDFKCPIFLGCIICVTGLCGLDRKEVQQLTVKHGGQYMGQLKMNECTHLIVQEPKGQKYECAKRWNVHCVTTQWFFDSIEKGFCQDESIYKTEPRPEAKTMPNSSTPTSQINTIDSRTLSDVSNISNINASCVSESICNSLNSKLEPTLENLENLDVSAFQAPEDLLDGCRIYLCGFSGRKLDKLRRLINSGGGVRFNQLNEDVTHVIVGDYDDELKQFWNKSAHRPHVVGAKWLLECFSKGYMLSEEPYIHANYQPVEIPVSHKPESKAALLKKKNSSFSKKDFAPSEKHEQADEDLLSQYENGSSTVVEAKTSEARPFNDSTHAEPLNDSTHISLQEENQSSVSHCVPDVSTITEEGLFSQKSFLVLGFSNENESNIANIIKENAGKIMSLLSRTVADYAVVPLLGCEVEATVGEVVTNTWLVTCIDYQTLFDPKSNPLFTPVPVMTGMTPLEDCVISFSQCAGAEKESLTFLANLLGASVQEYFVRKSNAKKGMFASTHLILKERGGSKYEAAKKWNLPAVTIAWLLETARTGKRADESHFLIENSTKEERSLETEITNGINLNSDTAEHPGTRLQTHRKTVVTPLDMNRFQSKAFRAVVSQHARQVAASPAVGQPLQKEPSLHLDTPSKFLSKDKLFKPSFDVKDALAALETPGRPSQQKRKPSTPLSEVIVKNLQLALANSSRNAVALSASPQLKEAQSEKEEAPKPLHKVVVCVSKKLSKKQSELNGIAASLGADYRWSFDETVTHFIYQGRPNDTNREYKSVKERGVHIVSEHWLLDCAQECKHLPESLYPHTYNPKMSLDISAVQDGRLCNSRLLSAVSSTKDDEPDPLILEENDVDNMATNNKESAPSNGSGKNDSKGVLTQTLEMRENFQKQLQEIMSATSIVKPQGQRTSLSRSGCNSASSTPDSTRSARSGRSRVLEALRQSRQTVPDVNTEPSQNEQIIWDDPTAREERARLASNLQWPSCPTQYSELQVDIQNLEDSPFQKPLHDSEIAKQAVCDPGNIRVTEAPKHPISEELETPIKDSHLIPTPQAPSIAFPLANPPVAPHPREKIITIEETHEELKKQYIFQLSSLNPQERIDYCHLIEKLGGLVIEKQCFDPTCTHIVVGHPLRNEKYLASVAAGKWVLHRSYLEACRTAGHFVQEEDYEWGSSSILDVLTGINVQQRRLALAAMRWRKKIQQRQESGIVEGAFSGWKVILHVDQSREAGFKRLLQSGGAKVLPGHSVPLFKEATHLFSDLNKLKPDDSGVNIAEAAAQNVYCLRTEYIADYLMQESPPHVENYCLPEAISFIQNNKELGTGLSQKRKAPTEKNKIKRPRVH
The data set is described as above. The data set is classed as cell-based. Conditions: 2.5 μM, 5 h. As for the experimental part:
as §1

Another data set deals with BT549 cells. Kind of data set: Trypan blue exclusion viability assay, BT549. The data set is classed as cell-based, human. As for the experimental part:
To prepare TopBP1 knockdown stable cell line, MDA-MB468 cells were infected with lentivirus expressing TopBP1 shRNA (Liu et al. 2011) as well as scramble shRNA, separately. The infected cells were grown for 48 h followed by selection with puromycin (2 μg/ml). After selection, the knockdown was confirmed by Western blotting before further experiments. Two different pLKO-shTopBP1 (#1 and #2) constructs (Open Biosystems, RHS4533-NM_007027) were used to deplete TopBP1 in MDA-MB468 cells. Additional two pSuper-shTopBP1 constructs (Liu et al. 2004) were used to knock down TopBP1 in HEK293 cells. Two pSuper-shE2F1 constructs were used to deplete E2F1: shE2F1#1 (described previously (Liu et al. 2004)), and shE2F1#2 (target sequence 5′-[…]-3′). The target sequence for pSuperior-shE2F1 is the same as pSuper-shE2F1#1. To deplete p63, shp63alpha pLKO.1-puro (from Addgene, 19120) was used. TP73 MISSION shRNA (shp73 pLKO.1-puro) was purchased from Sigma (TRCN00002722587).

A further data set has as its system BT549 xenografts. Briefly: BT549 xenograft formation. Type of data set: in vivo, nude mice. As for the experimental part:
Twenty nude mice were injected s.c. with BT549 cells. […] Six out of eight DMSO-treated mice developed xenografts later.

The next data set relates to Hs-578T. Particulars: NCI-DTP database; cited from earlier work.
In data set [4] the test system is p53 targets p21 and Bax in HCT116 cells. Kind of data set: Induction of p21 and Bax in isogenic p53+/+ and p53−/− HCT116 cells. Type of data set: cell-based. Particulars: p53+/+ versus p53−/− HCT116.
For a further data set, the system named is MDA-MB231 cells. Briefly: MTS assay, MDA-MB231. Type of data set: cell-based, human. As for the experimental part:
(§2) Then 50 μl of MTS reagent (CellTiter 96® AQueous One Solution Cell Proliferation Assay, Promega) was added to each well, covered from light and incubated for 1 h at 37.0 incubator to develop purple color. The samples were measured at 490 nm in a plate reader (BioTek Synergy HT) against a blank 48-well plate. Each assay was done in triplicate.
(In general: Tetrazolium dyes change colour on reduction, which living cells bring about.)

A further data set has as its system mice. Conditions: cited from earlier work.
A further data set relates to MDA-MB468 cells. Briefly: MTS assay, MDA-MB468. The data set is classed as cell-based, human. Conditions: 5 h. As for the experimental part:
as §2

In general, GI50 refers to the concentration giving 50% growth inhibition. `CC(=O)OCOC(=O)CN(CC(=O)OCOC(C)=O)Cc1cc2c(cc1OC(C)=O)Oc1cc(OC(C)=O)c(CN(CC(=O)OCOC(C)=O)CC(=O)OCOC(C)=O)cc1C21OC(=O)c2ccccc21` [Calcein AM, Calcein AM (acetoxymethyl ester)]: the figures for the GI50 (in data set [1]; in the data set on Hs-578T) were 1400 nM and less than 400 nM, respectively. Also, the “apoptosis (caspase 3/7 activity)” value with MCF7 cells is “induced apoptosis”. For the same compound, the “TopBP1 oligomerization, differentially tagged TopBP1” value in the data set on TopBP1 oligomerization [2] is on record as “inhibit TopBP1 oligomerization”. For the same compound, at TopBP1 oligomerization [3], the “endogenous TopBP1 oligomerization, DMP chemical crosslinking assay” value was “blocked endogenous TopBP1 oligomerization”. Besides, the “Calcein AM response, viability assay” value in the data set with BT549 cells (E2F1 depleted by two shRNA constructs, 2.5 μM, 20 h) is “attenuated”. In the data set on BT549 cells (p63- and p73-depleted cells, 2 μM, 15 h), the “living cells compared with scrambled shRNA” value is reported as “more living cells”. Besides, the “mice that developed tumors” value is recorded as “none of the eight” in the data set with BT549 xenografts (20 mg/kg i.p. every three days for three doses) and “none of the four” in the data set with BT549 xenografts (40 mg/kg i.p. every three days for three doses). Moreover, in [4], the “induction of p21 and Bax” value is “observed on in p53^+/+, but not in p53^−/−”. Also, the “anti-apoptotic activity of overexpressed TopBP1 (doxorubicin resistance)” value in the data set on MDA-MB231 cells (AdTopBP1-infected cells, doxorubicin, Calcein AM 2.5 μM) is “blocked”. In addition, the “proliferation (MTS)” value was “preferentially inhibited the proliferation” in the data set on MDA-MB231 cells (increasing concentrations, 5 h, versus MCF10A) and “preferentially inhibited the proliferation” with MDA-MB468 cells (increasing concentrations, versus MCF10A). In the data set with mice (oral), the “oral LD50” value was 17000 mg/kg. Besides, the “percutaneous LD50” value in the data set on mice (percutaneous) was 5000 mg/kg. For the same compound, the “doxorubicin sensitivity (MTS)” value was “failed to cast the same effect” in the data set with MDA-MB468 cells (TopBP1-depleted cells, 2.5 μM); “greatly enhanced the doxorubicin sensitivity” with MDA-MB468 cells (co-treated with doxorubicin, Calcein AM 2.5 μM); “sensitized” in the data set on MDA-MB468 cells (shScr control cells, 2.5 μM).
